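1) Cells in 96-well plates. 2) Compound, 48 h, 5 concentrations. 3) Linear interpolation between surrounding doses. 4) Unreached endpoint = highest concentration. GI50 = concentration required for 50% inhibition of growth.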 The source made the active and inactive calls. Cut-off read from the data, not from the text of the source: active = GI50 up to about 1.1 µM and inactive = higher.
Tests used:
Experiment in all cases: DTP human tumour cell line panel, 48 h
786-0 = system: 786-0
A498 = system: A498
A549 = system: A549
ACHN = system: ACHN
BT-549 = system: BT-549
CAKI-1 = system: CAKI-1
CCRF-CEM = system: CCRF-CEM
COLO 205 = system: COLO 205
DU-145 = system: DU-145
EKVX = system: EKVX
HCT-116 = system: HCT-116
HCT-15 = system: HCT-15
HOP-62 = system: HOP-62
HOP-92 = system: HOP-92
HT-29 = system: HT-29
Hs-578T = system: Hs-578T
IGROV-1 = system: IGROV-1
K562 = system: K562
KM12 = system: KM12
LOX IMVI = system: LOX IMVI
M14 = system: M14
MCF7 = system: MCF7
MDA-MB-231 = system: MDA-MB-231
MDA-MB-435 = system: MDA-MB-435
MDA-N = system: MDA-N
MOLT-4 = system: MOLT-4
Malme-3M = system: Malme-3M
NCI-H226 = system: NCI-H226
NCI-H23 = system: NCI-H23
NCI-H460 = system: NCI-H460
NCI-H522 = system: NCI-H522
NCI/ADR-RES = system: NCI/ADR-RES
OVCAR-3 = system: OVCAR-3
OVCAR-4 = system: OVCAR-4
OVCAR-5 = system: OVCAR-5
OVCAR-8 = system: OVCAR-8
PC-3 = system: PC-3
RPMI-8226 = system: RPMI-8226
RXF 393 = system: RXF 393
SF-268 = system: SF-268
SF-295 = system: SF-295
SK-MEL-28 = system: SK-MEL-28
SK-MEL-2 = system: SK-MEL-2
SK-MEL-5 = system: SK-MEL-5
SK-OV-3 = system: SK-OV-3
SN12C = system: SN12C
SNB-19 = system: SNB-19
SNB-75 = system: SNB-75
SR = system: SR
SW-620 = system: SW-620
T47D = system: T47D
TK-10 = system: TK-10
U-251 = system: U-251
UACC-257 = system: UACC-257
UACC-62 = system: UACC-62
UO-31 = system: UO-31
HCC 2998 = system: HCC 2998
HL-60 = system: HL-60
SF-539 = system: SF-539

O=C(O)C12CC3(C(=O)O)CC(C(=O)O)(CC(C(=O)O)(C1)C3=O)C2=O
GI50 (786-0): > 100 µM (inactive)
GI50 (A498): > 100 µM (inactive)
GI50 (A549): > 100 µM (inactive)
GI50 (ACHN): > 100 µM (inactive)
GI50 (BT-549): > 100 µM (inactive)
GI50 (CAKI-1): > 100 µM (inactive)
GI50 (CCRF-CEM): > 100 µM (inactive)
GI50 (COLO 205): > 100 µM (inactive)
GI50 (DU-145): > 100 µM (inactive)
GI50 (EKVX): > 100 µM (inactive)
GI50 (HCT-116): > 100 µM (inactive)
GI50 (HCT-15): > 100 µM
GI50 (HOP-62): > 100 µM (inactive)
GI50 (HOP-92): > 100 µM (inactive)
GI50 (HT-29): > 100 µM (inactive)
GI50 (Hs-578T): > 100 µM (inactive)
GI50 (IGROV-1): > 100 µM (inactive)
GI50 (K562): > 100 µM (inactive)
GI50 (KM12): > 100 µM (inactive)
GI50 (LOX IMVI): > 100 µM (inactive)
GI50 (M14): > 100 µM (inactive)
GI50 (MCF7): > 100 µM (inactive)
GI50 (MDA-MB-231): > 100 µM (inactive)
GI50 (MDA-MB-435): > 100 µM (inactive)
GI50 (MDA-N): > 100 µM (inactive)
GI50 (MOLT-4): > 100 µM (inactive)
GI50 (Malme-3M): > 100 µM (inactive)
GI50 (NCI-H226): > 100 µM (inactive)
GI50 (NCI-H23): > 100 µM (inactive)
GI50 (NCI-H460): > 100 µM (inactive)
GI50 (NCI-H522): > 100 µM (inactive)
GI50 (NCI/ADR-RES): > 100 µM (inactive)
GI50 (OVCAR-3): > 100 µM (inactive)
GI50 (OVCAR-4): > 100 µM (inactive)
GI50 (OVCAR-5): > 100 µM (inactive)
GI50 (OVCAR-8): > 100 µM (inactive)
GI50 (PC-3): > 100 µM (inactive)
GI50 (RPMI-8226): > 100 µM (inactive)
GI50 (RXF 393): > 100 µM (inactive)
GI50 (SF-268): > 100 µM (inactive)
GI50 (SF-295): > 100 µM (inactive)
GI50 (SK-MEL-28): > 100 µM (inactive)
GI50 (SK-MEL-2): > 100 µM (inactive)
GI50 (SK-MEL-5): > 100 µM (inactive)
GI50 (SK-OV-3): > 100 µM (inactive)
GI50 (SN12C): > 100 µM (inactive)
GI50 (SNB-19): > 100 µM (inactive)
GI50 (SNB-75): > 100 µM (inactive)
GI50 (SR): > 100 µM (inactive)
GI50 (SW-620): > 100 µM (inactive)
GI50 (T47D): > 100 µM (inactive)
GI50 (TK-10): > 100 µM (inactive)
GI50 (U-251): > 100 µM (inactive)
GI50 (UACC-257): > 100 µM (inactive)
GI50 (UACC-62): > 100 µM (inactive)
GI50 (UO-31): > 100 µM (inactive)

CCC1=NC(C(F)(F)F)(C(F)(F)F)N=C(/N=C(/N)N(C)C(C(C)C)P(=O)(OC(C)C)OC(C)C)O1 (stereo unspecified)
GI50 (786-0): > 100 µM (inactive)
GI50 (A498): > 100 µM (inactive)
GI50 (A549): > 100 µM (inactive)
GI50 (ACHN): > 100 µM (inactive)
GI50 (BT-549): > 100 µM (inactive)
GI50 (CAKI-1): > 100 µM (inactive)
GI50 (CCRF-CEM): > 100 µM (inactive)
GI50 (COLO 205): > 100 µM (inactive)
GI50 (DU-145): > 100 µM (inactive)
GI50 (EKVX): > 100 µM (inactive)
GI50 (HCC 2998): > 100 µM (inactive)
GI50 (HCT-116): > 100 µM (inactive)
GI50 (HCT-15): > 100 µM
GI50 (HL-60): > 100 µM (inactive)
GI50 (HOP-62): > 100 µM (inactive)
GI50 (HT-29): > 100 µM (inactive)
GI50 (Hs-578T): > 100 µM (inactive)
GI50 (IGROV-1): > 100 µM (inactive)
GI50 (K562): > 100 µM (inactive)
GI50 (KM12): > 100 µM (inactive)
GI50 (LOX IMVI): > 100 µM (inactive)
GI50 (M14): > 100 µM (inactive)
GI50 (MCF7): > 100 µM (inactive)
GI50 (MDA-MB-231): > 100 µM (inactive)
GI50 (MDA-MB-435): > 100 µM (inactive)
GI50 (MDA-N): > 100 µM (inactive)
GI50 (MOLT-4): > 100 µM (inactive)
GI50 (Malme-3M): > 100 µM (inactive)
GI50 (NCI-H226): > 100 µM (inactive)
GI50 (NCI-H23): > 100 µM (inactive)
GI50 (NCI-H460): > 100 µM (inactive)
GI50 (NCI-H522): > 100 µM (inactive)
GI50 (NCI/ADR-RES): > 100 µM (inactive)
GI50 (OVCAR-3): > 100 µM (inactive)
GI50 (OVCAR-4): > 100 µM (inactive)
GI50 (OVCAR-5): > 100 µM (inactive)
GI50 (OVCAR-8): > 100 µM (inactive)
GI50 (PC-3): > 100 µM (inactive)
GI50 (RPMI-8226): > 100 µM (inactive)
GI50 (RXF 393): > 100 µM (inactive)
GI50 (SF-268): > 100 µM (inactive)
GI50 (SF-295): > 100 µM (inactive)
GI50 (SF-539): > 100 µM (inactive)
GI50 (SK-MEL-28): > 100 µM (inactive)
GI50 (SK-MEL-2): > 100 µM (inactive)
GI50 (SK-MEL-5): > 100 µM (inactive)
GI50 (SK-OV-3): > 100 µM (inactive)
GI50 (SN12C): > 100 µM (inactive)
GI50 (SNB-19): > 100 µM (inactive)
GI50 (SNB-75): > 100 µM (inactive)
GI50 (SR): > 100 µM (inactive)
GI50 (SW-620): > 100 µM (inactive)
GI50 (T47D): > 100 µM (inactive)
GI50 (TK-10): > 100 µM (inactive)
GI50 (U-251): > 100 µM (inactive)
GI50 (UACC-257): > 100 µM (inactive)
GI50 (UACC-62): > 100 µM (inactive)
GI50 (UO-31): > 100 µM (inactive)

Cc1nnc(N)nc1C/C=C/C(Sc1ccc(Cl)cc1)c1ccccc1 (stereo unspecified)
GI50 (786-0): 3.27 µM (inactive)
GI50 (A498): 3.73 µM (inactive)
GI50 (A549): 2.82 µM (inactive)
GI50 (ACHN): 4.3 µM (inactive)
GI50 (BT-549): 2.13 µM (inactive)
GI50 (CAKI-1): 5.7 µM (inactive)
GI50 (CCRF-CEM): 0.235 µM (active)
GI50 (COLO 205): 4.5 µM (inactive)
GI50 (DU-145): 8.02 µM (inactive)
GI50 (EKVX): 3.64 µM (inactive)
GI50 (HCC 2998): 9.38 µM (inactive)
GI50 (HCT-116): 3.59 µM (inactive)
GI50 (HCT-15): 3.25 µM
GI50 (HL-60): 2.87 µM (inactive)
GI50 (HOP-62): 5.28 µM (inactive)
GI50 (HOP-92): 5.68 µM (inactive)
GI50 (HT-29): 7.01 µM (inactive)
GI50 (Hs-578T): 3.27 µM (inactive)
GI50 (IGROV-1): 1.82 µM (inactive)
GI50 (K562): 3.44 µM (inactive)
GI50 (KM12): 3.56 µM (inactive)
GI50 (LOX IMVI): 2.26 µM (inactive)
GI50 (M14): 4.73 µM (inactive)
GI50 (MCF7): 3.95 µM (inactive)
GI50 (MDA-MB-231): 6.76 µM (inactive)
GI50 (MDA-MB-435): 3.15 µM (inactive)
GI50 (MDA-N): 6.21 µM (inactive)
GI50 (MOLT-4): 2.56 µM (inactive)
GI50 (Malme-3M): 3.06 µM (inactive)
GI50 (NCI-H226): 1.86 µM (inactive)
GI50 (NCI-H23): 3.17 µM (inactive)
GI50 (NCI-H460): 3.41 µM (inactive)
GI50 (NCI-H522): 1.81 µM (inactive)
GI50 (NCI/ADR-RES): 4.69 µM (inactive)
GI50 (OVCAR-4): 4.94 µM (inactive)
GI50 (OVCAR-5): 4.89 µM (inactive)
GI50 (OVCAR-8): 5.04 µM (inactive)
GI50 (PC-3): 3.01 µM (inactive)
GI50 (RPMI-8226): 1.43 µM (inactive)
GI50 (RXF 393): 4.45 µM (inactive)
GI50 (SF-268): 2.4 µM (inactive)
GI50 (SF-295): 1.91 µM (inactive)
GI50 (SK-MEL-28): 6.78 µM (inactive)
GI50 (SK-MEL-2): 5.66 µM (inactive)
GI50 (SK-MEL-5): 4.35 µM (inactive)
GI50 (SK-OV-3): 3.86 µM (inactive)
GI50 (SN12C): 4.41 µM (inactive)
GI50 (SNB-19): 3.05 µM (inactive)
GI50 (SNB-75): 4.45 µM (inactive)
GI50 (SR): 3.35 µM (inactive)
GI50 (SW-620): 4.2 µM (inactive)
GI50 (T47D): 11.2 µM (inactive)
GI50 (TK-10): 7.14 µM (inactive)
GI50 (U-251): 2.91 µM (inactive)
GI50 (UACC-257): 4.22 µM (inactive)
GI50 (UACC-62): 2.74 µM (inactive)
GI50 (UO-31): 1.52 µM (inactive)

Reference: ChEMBL document CHEMBL1201862, “PubChem BioAssay data set” (2004)
